{"source": "patent US12630806B2", "about": "(priority 2020, dated 2026)", "key": {"PaLPMO9H": {"test_system": "PaLPMO9H", "assay": "AA7-LPMO synergy assay with PaLPMO9H on PASC or Avicel (HPAEC-PAD)", "type": "biochemical, Podospora anserina"}, "[1]": {"target": "T1, FgCelDH7C, Fusarium graminearum PH-1, SEQ ID NO: 1 (Table 2: SEQ ID NO: 31) (Fusarium graminearum, UniProt I1RWY4)", "conditions": "dehydrogenase assay, 0.1 mM DCIP, 0.1 μM enzyme, 50 mM HEPES pH 7.0, FgCelDH7C"}, "[2]": {"target": "T2, MoChiO7A, Magnaporthe (anamorph Pyricularia) oryzae 70-15, SEQ ID NO: 21 (Table 2: SEQ ID NO: 35) (Pyricularia oryzae, UniProt G4NAH7)", "conditions": "oxidase assay, 50 mM NaOAc pH 5.2, MoChiO7A"}, "[3]": {"target": "T3, FgChiO7B, Fusarium graminearum, SEQ ID NO: 20 (Table 2: SEQ ID NO: 33) (Fusarium graminearum, UniProt A0ACM8RFH6)", "conditions": "oxidase assay, 50 mM NaOAc pH 5.2, FgChiO7B"}, "[4]": {"target": "T2, MoChiO7A, Magnaporthe (anamorph Pyricularia) oryzae 70-15, SEQ ID NO: 21 (Table 2: SEQ ID NO: 35)", "conditions": "dehydrogenase assay, 0.1 mM DCIP, 0.1 μM enzyme, 50 mM HEPES pH 7.0, MoChiO7A"}, "[5]": {"target": "T3, FgChiO7B, Fusarium graminearum, SEQ ID NO: 20 (Table 2: SEQ ID NO: 33)", "conditions": "dehydrogenase assay, 0.1 mM DCIP, 0.1 μM enzyme, 50 mM HEPES pH 7.0, FgChiO7B"}, "[6]": {"test_system": "FgAA7D, Fusarium graminearum PH-1, SEQ ID NO: 113", "type": "biochemical", "conditions": "150 nM enzyme, 10 mM cellobiose"}, "[7]": {"target": "T1, FgCelDH7C, Fusarium graminearum PH-1, SEQ ID NO: 1 (Table 2: SEQ ID NO: 31)", "type": "biochemical", "conditions": "oxidase assay, 20 mM cellobiose; for V0/E: estimated"}, "[8]": {"target": "T4, PsAA7A, Phytophthora sojae, SEQ ID NO: 7 (Table 2: SEQ ID NO: 37) (Phytophthora sojae, UniProt G4YI39)", "T4 sequence (G4YI39 23-504)": "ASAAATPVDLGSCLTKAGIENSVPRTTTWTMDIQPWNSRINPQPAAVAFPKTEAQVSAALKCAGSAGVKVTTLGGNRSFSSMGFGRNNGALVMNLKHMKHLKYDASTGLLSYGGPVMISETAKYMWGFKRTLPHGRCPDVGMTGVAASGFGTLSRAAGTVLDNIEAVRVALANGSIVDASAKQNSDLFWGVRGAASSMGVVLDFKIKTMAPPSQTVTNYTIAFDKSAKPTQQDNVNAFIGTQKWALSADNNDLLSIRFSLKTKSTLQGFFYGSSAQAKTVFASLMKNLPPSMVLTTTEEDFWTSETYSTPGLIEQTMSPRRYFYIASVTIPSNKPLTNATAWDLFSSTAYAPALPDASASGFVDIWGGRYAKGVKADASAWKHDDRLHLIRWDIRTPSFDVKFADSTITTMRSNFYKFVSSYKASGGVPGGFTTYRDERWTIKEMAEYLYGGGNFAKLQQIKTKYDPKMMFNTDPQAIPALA", "type": "biochemical"}, "[9]": {"target": "T4, PsAA7A, Phytophthora sojae, SEQ ID NO: 7 (Table 2: SEQ ID NO: 37)", "type": "biochemical", "remark": "listed apart in the source"}, "[10]": {"type": "biochemical", "conditions": "GalA; V0/E values"}}, "note": "Entries after “also recorded” stand apart in the source; their conditions may differ. Where two headings read alike, the source gives them in different places."}
{"molecule": "O=C1C=CC(=Nc2cc(Cl)c(O)c(Cl)c2)C=C1", "note": "[DCIP, 2,6-dichlorophenolindophenol]", "values": [{"measurement": "synergy with PaLPMO9H: released cello-oligosaccharides from PASC", "setting": "PaLPMO9H", "result": "inhibited the observed synergy"}]}
{"molecule": "OC[C@H]1O[C@@H](O[C@H]2[C@H](O)[C@@H](O)[C@H](O[C@H]3[C@H](O)[C@@H](O)[C@H](O[C@H]4[C@H](O)[C@@H](O)C(O)O[C@@H]4CO)O[C@@H]3CO)O[C@@H]2CO)[C@H](O)[C@@H](O)[C@@H]1O", "note": "(some centres unmarked) [Cellotetraose, cellotetraose]", "values": [{"measurement": "kcat", "setting": "[1]", "result": "39.2 ± 0.76", "unit": "s⁻¹"}]}
{"molecule": "CC(=O)N[C@H]1[C@H](O[C@H]2[C@H](O)[C@@H](NC(C)=O)C(O)O[C@@H]2CO)O[C@H](CO)[C@@H](O[C@@H]2O[C@H](CO)[C@@H](O)[C@H](O)[C@H]2NC(C)=O)[C@@H]1O", "note": "(some centres unmarked) [Chitotriose, chitotriose]", "values": [{"measurement": "kcat", "setting": "[2]", "result": "3.71 ± 0.09", "unit": "s⁻¹"}, {"measurement": "kcat", "setting": "[3]", "result": "6.14 ± 0.29", "unit": "s⁻¹"}]}
{"molecule": "CC(=O)N[C@H]1C(O)O[C@H](CO)[C@H](O)[C@@H]1O", "note": "(some centres unmarked) [GalNAc]", "values": [{"measurement": "kcat", "setting": "[2]", "result": "3.67 ± 0.06", "unit": "s⁻¹"}]}
{"molecule": "CC(=O)N[C@H]1[C@H](O[C@H]2[C@H](O)[C@@H](NC(C)=O)C(O)O[C@@H]2CO)O[C@H](CO)[C@@H](O)[C@@H]1O", "note": "(some centres unmarked) [Chitobiose, chitobiose]", "values": [{"measurement": "kcat", "setting": "[2]", "result": "4.37 ± 0.12", "unit": "s⁻¹"}, {"measurement": "kcat", "setting": "[4]", "result": "22.4 ± 0.5", "unit": "s⁻¹"}, {"measurement": "kcat", "setting": "[5]", "result": "29.3 ± 0.41", "unit": "s⁻¹"}, {"measurement": "kcat", "setting": "[3]", "result": "2.27 ± 0.03", "unit": "s⁻¹"}]}
{"molecule": "OC[C@H]1O[C@@H](O[C@H]2[C@H](O)[C@@H](O)C(O)O[C@@H]2CO)[C@H](O)[C@@H](O)[C@@H]1O", "note": "(some centres unmarked) [Cellobiose, cellobiose]", "values": [{"measurement": "kcat", "setting": "[1]", "result": "30.8 ± 0.81", "unit": "s⁻¹"}, {"measurement": "Estimated oxidase activity", "setting": "[6]", "result": 0.001, "unit": "s⁻¹"}, {"measurement": "normalized rate (slope of linear region/E), initial burst", "setting": "[7]; 150 μM enzyme", "result": 0.00029, "unit": "s⁻¹"}, {"measurement": "reaction rate, second phase", "setting": "[7]; 150 μM enzyme", "result": "7e-05", "unit": "s⁻¹"}, {"measurement": "normalized rate (slope of linear region/E), initial burst", "setting": "[7]; 500 μM enzyme", "result": 0.00013, "unit": "s⁻¹"}, {"measurement": "reaction rate, second phase", "setting": "[7]; 500 μM enzyme", "result": "4.1e-05", "unit": "s⁻¹"}, {"measurement": "V0/E", "setting": "[7]; 150 uM enzyme", "result": "(2.93E−4^c) s^−1"}, {"measurement": "V0/E", "setting": "[7]; 500 uM enzyme", "result": "1.29E−4^b s^−1"}]}
{"molecule": "O=C(O)[C@H]1OC(O)[C@H](O)[C@@H](O)[C@H]1O", "note": "(some centres unmarked) [GalA, galacturonic acid]", "values": [{"measurement": "dehydrogenase activity (V0/E)", "setting": "[8]", "result": 6.4, "unit": "s⁻¹"}, {"measurement": "V0/E", "setting": "[9]", "result": "1.7E−4^d s^−1"}, {"measurement": "oxidase activity estimated from the linear segments after the initial delayed burst", "setting": "[9]", "result": "1.7±0.6 ×10^−4 s^−1"}]}
{"molecule": "CC(=O)N[C@H]1C(O)O[C@H](CO)[C@@H](O)[C@@H]1O", "note": "(some centres unmarked) [GlcNAc]", "values": [{"measurement": "kcat", "setting": "[2]", "result": "3.8 ± 0.07", "unit": "s⁻¹"}, {"measurement": "kcat", "setting": "[3]", "result": "6.76 ± 0.31", "unit": "s⁻¹"}]}
{"molecule": "OC[C@H]1O[C@@H](O[C@H]2[C@H](O)[C@@H](O)[C@H](O[C@H]3[C@H](O)[C@@H](O)C(O)O[C@@H]3CO)O[C@@H]2CO)[C@H](O)[C@@H](O)[C@@H]1O", "note": "(some centres unmarked) [Cellotriose, cellotriose]", "values": [{"measurement": "kcat", "setting": "[1]", "result": "36.1 ± 0.74", "unit": "s⁻¹"}]}
{"molecule": "PsAA7A: AA7 clade IIb enzyme from Phytophthora sojae, active on glucuronic and galacturonic acid (protein, listed as Phytophthora sojae, peptide (1)..(504) PsAA7A from Phytophthora sojae - an AA7 enzyme belonging to clade IIb) MVSSASSAIFALCSLIAAQSGLASAAATPVDLGSCLTKAGIENSVPRTTTWTMDIQPWNSRINPQPAAVAFPKTEAQVSAALKCAGSAGVKVTTLGGNRSFSSMGFGRNNGALVMNLKHMKHLKYDASTGLLSYGGPVMISETAKYMWGFKRTLPHGRCPDVGMTGVAASGFGTLSRAAGTVLDNIEAVRVALANGSIVDASAKQNSDLFWGVRGAASSMGVVLDFKIKTMAPPSQTVTNYTIAFDKSAKPTQQDNVNAFIGTQKWALSADNNDLLSIRFSLKTKSTLQGFFYGSSAQAKTVFASLMKNLPPSMVLTTTEEDFWTSETYSTPGLIEQTMSPRRYFYIASVTIPSNKPLTNATAWDLFSSTAYAPALPDASASGFVDIWGGRYAKGVKADASAWKHDDRLHLIRWDIRTPSFDVKFADSTITTMRSNFYKFVSSYKASGGVPGGFTTYRDERWTIKEMAEYLYGGGNFAKLQQIKTKYDPKMMFNTDPQAIPALA", "values": [{"measurement": "dehydrogenase/oxidase ratio", "setting": "[10]", "result": "about 4×10^4"}, {"measurement": "synergy to LPMO catalyzed degradation of avicel", "setting": "PaLPMO9H; Avicel 0.5% (w/v), 35° C., 24 h, PaLPMO9H, AA7 with its substrate (cellotetraose or galacturonic acid 0.8 mM)", "result": "does not (or does only with a far lower extent) confer synergy"}]}
{"molecule": "HRP: horseradish peroxidase, captures H2O2 (protein, UniProt P00433 31-338, looked up) Peroxidase C1A: QLTPTFYDNSCPNVSNIVRDTIVNELRSDPRIAASILRLHFHDCFVNGCDASILLDNTTSFRTEKDAFGNANSARGFPVIDRMKAAVESACPRTVSCADLLTIAAQQSVTLAGGPSWRVPLGRRDSLQAFLDLANANLPAPFFTLPQLKDSFRNVGLNRSSDLVALSGGHTFGKNQCRFIMDRLYNFSNTGLPDPTLNTTYLQTLRGLCPLNGNLSALVDFDLRTPTIFDNKYYVNLEEQKGLIQSDQELFSSPNATDTIPLVRSFANSTQTFFNAFVEAMDRMGNITPLTGTQGQIRLNCRVVNSNS", "values": [{"measurement": "effect of additive on PaLPMO9H-FgCelDH7C synergy / LPMO activity", "setting": "PaLPMO9H; Avicel, 18 h at 35° C., HRP or SOD added", "result": "inhibitory of the LPMO activity; also recorded: abolished the activity"}]}
